Test results from the Kinase Knowledgebase extract (Sharma et al. 2016).

Target: CDK2 (human) (UniProt P24941)
Test: Enzyme Assay

Row | Compound | IC50 [µM]
1 | Cc1c(N[C@H]2CC[C@H](N)CC2)nc2ccnn2c1Nc1ccc(-c2csc3ccccc23)cc1 | < 100
2 | CCc1c(N[C@H]2CC[C@H](N)CC2)nc2ccnn2c1Nc1cccc(Br)c1 | < 100
3 | CCc1c(NC2CCCNC2)nc2c(Cl)cnn2c1Nc1ccc(I)cc1 (stereo not drawn) | < 100
4 | Cc1c(N[C@H]2CC[C@H](N)CC2)nc2ccnn2c1Nc1cccc(O)c1 | < 100
5 | CCc1c(NC2CCCNC2)nc2ccnn2c1Nc1ccc(F)c(Cl)c1 (stereo not drawn) | < 100
6 | CCc1c(N[C@H]2CC[C@H](N)CC2)nc2ccnn2c1Nc1ccc(C(N)=O)cc1 | < 100
7 | Cc1c(N[C@H]2CC[C@H](N)CC2)nc2ccnn2c1Nc1ccccc1F | < 100
8 | Cc1c(N[C@H]2CC[C@H](N)CC2)nc2ccnn2c1Nc1ccc2[nH]ccc2c1 | < 100
9 | CCOc1cccc(Nc2c(CC)c(N[C@H]3CC[C@H](N)CC3)nc3ccnn23)c1 | < 100
10 | CCOc1ccc(Nc2c(C)c(NC3(CO)CCCC3)nc3ccnn23)cc1 | < 100
11 | Cc1c(N[C@H]2CC[C@H](N)CC2)nc2ccnn2c1Nc1ccc(-c2ccc(N(C)C)cc2)cc1 | < 100
12 | CCOc1ccc(Nc2c(C)c(N[C@H]3CC[C@H](N)CC3)nc3c(C(=O)Nc4cc[nH]n4)cnn23)cc1 | < 100
13 | CC1=[SH]c2cc(Nc3c(C)c(N[C@H]4CC[C@H](N)CC4)nc4ccnn34)ccc2N1 | < 100
14 | N[C@H]1CC[C@H](Nc2nc3ccnn3c(Nc3ccc(F)c(Cl)c3)c2-c2ccccc2)CC1 | < 100
15 | CCCNc1c(C)c(N[C@H]2CC[C@H](N)CC2)nc2ccnn12 | < 100
16 | Cc1c(N[C@H]2CC[C@H](N)CC2)nc2ccnn2c1NCC(C)(C)C | < 100
17 | CCOc1ccc(Nc2c(C)c(NC3CCCNC3)nc3c(C(C)C)cnn23)cc1 (stereo not drawn) | < 100
18 | Cc1ccc(-c2ccc(Nc3c(C)c(N[C@H]4CC[C@H](N)CC4)nc4ccnn34)cc2)cc1 | < 100
19 | Cc1cc2cc(Nc3c(C)c(N[C@H]4CC[C@H](N)CC4)nc4ccnn34)ccc2[nH]1 | < 100
20 | Cc1c(N[C@H]2CC[C@H](N)CC2)nc2ccnn2c1Nc1ccc(C(F)(F)F)cc1 | < 100
21 | Cc1c(NC2CCCNC2)nc2ccnn2c1Nc1ccc(-c2ccc(N)cc2)cc1 (stereo not drawn) | < 100
22 | CCCOc1ccc(Nc2c(C)c(N[C@H]3CC[C@H](N)CC3)nc3ccnn23)cc1 | < 100
23 | CC(=O)c1ccc(-c2ccc(Nc3c(C)c(N[C@H]4CCCNC4)nc4ccnn34)cc2)s1 | < 100
24 | CCOc1ccc(Nc2c(C)c(NC3CCCNC3)nc3c(C4CCCCC4)cnn23)cc1 (stereo not drawn) | < 100
25 | CCOc1ccc(Nc2c(C)c(N[C@H]3CC[C@H](N)CC3)nc3c(N)cnn23)cc1 | < 100
26 | CCc1c(N[C@H]2CC[C@H](N)CC2)nc2ccnn2c1Nc1cccc(Oc2ccccc2)c1 | < 100
27 | Cc1c(N[C@H]2CC[C@H](N)CC2)nc2ccnn2c1Nc1ccc(-c2ccccc2O)cc1 | < 100
28 | CCOc1ccc(Nc2c(C)c(N[C@@H]3CCNC3)nc3ccnn23)cc1 | < 100
29 | Cc1c(N[C@H]2CC[C@H](N)CC2)nc2ccnn2c1Nc1ccc(-c2cccc(Cl)c2)cc1 | < 100

Second part, the compound after the results:

Row | IC50 [µM] | Compound
30 | < 100 | Cc1c(N[C@H]2CC[C@H](N)CC2)nc2ccnn2c1Nc1ccc(C(=O)NC2CCCC2)cc1
31 | < 100 | Cc1c(N[C@H]2CC[C@H](N)CC2)nc2ccnn2c1Nc1ccc(-c2ccncc2)cc1
32 | < 100 | CCOc1ccc(Nc2c(C)c(N[C@H]3CC[C@H](N)CC3)nc3c(C(=O)Nc4ccccc4)cnn23)cc1
33 | < 100 | Cc1c(N[C@H]2CC[C@H](N)CC2)nc2ccnn2c1Nc1ccc(-c2ccc(OC(F)(F)F)cc2)cc1
34 | < 100 | Cc1c(N[C@H]2CC[C@H](N)CC2)nc2ccnn2c1Nc1ccc(OC2CCCCC2)cc1
35 | < 100 | Cc1c(N[C@H]2CC[C@H](N)CC2)nc2ccnn2c1Nc1cccc(OCc2cccnc2)c1
36 | < 100 | Cc1c(N[C@H]2CC[C@H](N)CC2)nc2c(F)cnn2c1Nc1ccc(I)cc1
37 | < 100 | Cc1c(N[C@H]2CC[C@H](N)CC2)nc2ccnn2c1Nc1ccc(OC(F)(F)F)cc1
38 | < 100 | CC(=O)c1ccc(-c2ccc(Nc3c(C)c(N[C@H]4CC[C@H](N)CC4)nc4ccnn34)cc2)s1
39 | < 100 | Cc1c(N[C@H]2CC[C@H](N)CC2)nc2ccnn2c1Nc1ccc(OCCN2CCOCC2)cc1
40 | < 100 | Cc1c(N[C@H]2CC[C@H](N)CC2)nc2ccnn2c1Nc1ccc(-c2cc3ccccc3s2)cc1
41 | < 100 | COc1ccc(-c2ccc(Nc3c(C)c(N[C@H]4CC[C@H](N)CC4)nc4ccnn34)cc2)cc1
42 | < 100 | Cc1c(N[C@H]2CC[C@H](N)CC2)nc2ccnn2c1Nc1ccc(-c2ccc(F)cc2)cc1
43 | < 100 | Cc1c(N[C@H]2CC[C@H](N)CC2)nc2ccnn2c1Nc1cccc(OCC2CCCC2)c1
44 | < 100 | Cc1c(N[C@H]2CC[C@H](N)CC2)nc2ccnn2c1Nc1cccc(OCc2ccccc2)c1
45 | < 100 | Cc1c(N[C@H]2CC[C@H](N)CC2)nc2ccnn2c1Nc1ccc(-c2ccc(Cl)cc2)cc1
46 | < 100 | COCc1cccc(-c2ccc(Nc3c(C)c(N[C@H]4CC[C@H](N)CC4)nc4ccnn34)cc2)c1
47 | < 100 | CCc1c(N[C@H]2CC[C@H](N)CC2)nc2ccnn2c1Nc1ccc(OC)c(OC)c1
48 | < 100 | Cc1c(N[C@H]2CC[C@H](N)CC2)nc2ccnn2c1Nc1ccc(O)cc1
49 | < 100 | Cc1c(N[C@H]2CC[C@H](N)CC2)nc2ccnn2c1Nc1ccc(C(=O)Nc2ccccc2)cc1
50 | < 100 | Cc1c(N[C@H]2CC[C@H](N)CC2)nc2ccnn2c1Nc1ccc(-c2ccc(C(F)(F)F)cc2)cc1
51 | < 100 | Cc1c(NC2CCCNC2)nc2ccnn2c1Nc1ccc(F)c(Cl)c1 (stereo not drawn)
52 | < 100 | Cc1c(N[C@H]2CC[C@H](N)CC2)nc2ccnn2c1Nc1ccc(OCCN2CCCCC2)cc1
53 | < 100 | CCc1c(N[C@H]2CC[C@H](N)CC2)nc2ccnn2c1Nc1cccc(C(N)=O)c1
